According to patent US12668600B2 (Kumquat Biosciences Inc., priority 2023, dated 2026):
pIC50: −log10 of the molar value.

Legend:
Assay type in all cases: biochemical
KRAS G12D = biological target: T1, KRAS G12D (Homo sapiens, UniProt P01116, G12D); test: HTRF KRAS-SOS1 interaction assay, KRAS G12D; conditions: binned ≤2 μM / >2 μM, read-out: Inhibition of KRAS G12D (IC50)
T1 construct: made in house; host or cells: E. coli, e.g. BL21 (DE3)
Outline: (§1)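 Read-out: HTRF ratio 665/620 nm after ≥10 min incubation of compound with GST-KRAS/anti-GST-Eu and His-hSOS1/anti-6His-XL665. Duplicate dose series, 10 μM down to 0.01 μM. Buffer HEPES pH 7.4, NaCl, DTT, BSA, Igepal.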

KRAS WT = biological target: T2, KRAS WT (Homo sapiens, UniProt P01116); test: HTRF KRAS-SOS1 interaction assay, wildtype KRAS; conditions: binned ≤2 μM / >2 μM, read-out: Inhibition of KRAS WT (IC50)
T2 construct: made in house; host or cells: E. coli, e.g. BL21 (DE3)
Outline: as §1

KRAS G12V = biological target: T3, KRAS G12V (Homo sapiens, UniProt P01116, G12V); test: HTRF KRAS-SOS1 interaction assay, KRAS G12V; conditions: binned ≤2 μM / >2 μM, read-out: Inhibition of KRAS G12V (IC50)
T3 construct: made in house; host or cells: E. coli, e.g. BL21 (DE3)
Outline: as §1

KRAS G12S = biological target: T4, KRAS G12S (Homo sapiens, UniProt P01116, G12S); test: HTRF KRAS-SOS1 interaction assay, KRAS G12S; conditions: binned ≤2 μM / >2 μM, read-out: Inhibition of KRAS G12S (IC50)
T4 construct: made in house; host or cells: E. coli, e.g. BL21 (DE3)
Outline: as §1

T2 sequence (P01116 1-188 isoform P01116-2): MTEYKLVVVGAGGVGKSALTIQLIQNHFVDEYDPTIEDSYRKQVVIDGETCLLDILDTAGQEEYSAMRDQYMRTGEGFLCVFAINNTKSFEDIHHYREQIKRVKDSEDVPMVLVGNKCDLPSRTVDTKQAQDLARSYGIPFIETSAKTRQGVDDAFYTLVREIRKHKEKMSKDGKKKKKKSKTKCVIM
T1 sequence (P01116 1-188 isoform P01116-2 G12D): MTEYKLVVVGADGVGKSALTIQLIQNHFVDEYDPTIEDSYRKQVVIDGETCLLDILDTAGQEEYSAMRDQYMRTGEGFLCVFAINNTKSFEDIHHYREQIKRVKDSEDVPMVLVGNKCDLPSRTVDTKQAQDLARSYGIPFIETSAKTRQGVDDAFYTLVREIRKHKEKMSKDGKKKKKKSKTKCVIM
T3 sequence (P01116 1-188 isoform P01116-2 G12V): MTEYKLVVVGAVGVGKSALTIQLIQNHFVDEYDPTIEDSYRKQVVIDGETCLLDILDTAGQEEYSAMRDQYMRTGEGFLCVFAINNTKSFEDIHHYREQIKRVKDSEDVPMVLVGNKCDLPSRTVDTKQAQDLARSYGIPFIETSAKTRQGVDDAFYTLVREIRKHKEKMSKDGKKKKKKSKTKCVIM
T4 sequence (P01116 1-188 isoform P01116-2 G12S): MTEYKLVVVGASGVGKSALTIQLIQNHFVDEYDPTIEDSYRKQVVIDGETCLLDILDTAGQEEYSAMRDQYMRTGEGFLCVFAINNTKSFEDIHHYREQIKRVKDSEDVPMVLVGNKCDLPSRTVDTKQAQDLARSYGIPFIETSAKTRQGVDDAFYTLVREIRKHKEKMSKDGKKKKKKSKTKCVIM

| SMILES | pIC50 (KRAS G12D) | pIC50 (KRAS WT) | pIC50 (KRAS G12V) | pIC50 (KRAS G12S) |
| --- | --- | --- | --- | --- |
| C[C@H](c1cccnc1N)N1CCOc2c(C(F)(F)F)c(-c3ccc(F)c4sc(N)c(C#N)c34)c(F)c3nc(OCC4(CN5CCC(=C(F)F)CC5)CC4)nc1c23 (single isomer, unassigned) [Compound 693] | ≥ 5.70 | ≥ 5.70 | ≥ 5.70 | ≥ 5.70 |
| N#Cc1c(N)sc2c(F)ccc(-c3c(C(F)(F)F)c4c5c(nc(OC[C@@]67CCCN6C[C@@]6(CC6(F)F)C7)nc5c3F)N([C@H](CCC(F)(F)F)c3cc(F)cnc3N)CCO4)c12 [Compound 617, 2-amino-4-(4-((R)-1-(2-amino-5-fluoropyridin-3-yl)-4,4,4-trifluorobutyl)-2-(((1S,7a′S)-2,2-difluorodihydro-1′H,3′H-spiro[cyclopropane-1,2′-pyrrolizin]-7a′(5′H)-yl)methoxy)-10-fluoro-8-(trifluoromethyl)-5,6-dihydro-4H-[1,4]oxazepino[5,6,7-de]quinazolin-9-yl)-7-fluorobenzo[b]thiophene-3-carbonitrile] | ≥ 5.70 | ≥ 5.70 | ≥ 5.70 | ≥ 5.70 |
| C[C@H](c1cccnc1N)N1CCOc2c(C(F)(F)F)c(-c3ccc(F)c4sc(N)c(C#N)c34)c(F)c3nc(OCC4(CN5CCC6(CC5)CC6(F)F)CC4)nc1c23 (atropisomer, axis not shown) [Compound 613, 2-amino-4-((S)-4-((R)-1-(2-aminopyridin-3-yl)ethyl)-2-((1-((1,1-difluoro-6-azaspiro[2.5]octan-6-yl)methyl)cyclopropyl)methoxy)-10-fluoro-8-(trifluoromethyl)-5,6-dihydro-4H-[1,4]oxazepino[5,6,7-de]quinazolin-9-yl)-7-fluorobenzo[b]thiophene-3-carbonitrile] | ≥ 5.70 | ≥ 5.70 | ≥ 5.70 | ≥ 5.70 |
| CON=C1CN2CCC[C@@]2(COc2nc3c4c(c(Cl)c(-c5ccc(F)c6sc(N)c(C#N)c56)c(F)c4n2)OCCN3[C@H](C)c2cccnc2N)C1 (mixture of isomers) [Compound 653, 2-amino-4-(4-((R)-1-(2-aminopyridin-3-yl)ethyl)-8-chloro-10-fluoro-2-(((S)-2-(methoxyimino)tetrahydro-1H-pyrrolizin-7a(5H)-yl)methoxy)-5,6-dihydro-4H-[1,4]oxazepino[5,6,7-de]quinazolin-9-yl)-7-fluorobenzo[b]thiophene-3-carbonitrile] | ≥ 5.70 | ≥ 5.70 | ≥ 5.70 | ≥ 5.70 |
| CCON=C1CN2CCC[C@@]2(COc2nc3c4c(c(Cl)c(-c5ccc(F)c6sc(N)c(C#N)c56)c(F)c4n2)OCCN3[C@H](C)c2cccnc2N)C1 (single isomer, unassigned) [Compound 700] | ≥ 5.70 | ≥ 5.70 | ≥ 5.70 | ≥ 5.70 |
| C/C=C/[C@H](c1cccnc1N)N1CCOc2c(Cl)c(-c3ccc(F)c4sc(N)c(C#N)c34)c(F)c3nc(OC[C@@]45CCCN4C[C@H](F)C5)nc1c23 (mixture of isomers) [Compound 756, 2-amino-4-(4-((R,E)-1-(2-aminopyridin-3-yl)but-2-en-1-yl)-8-chloro-10-fluoro-2-(((2R,7aS)-2-fluorotetrahydro-1H-pyrrolizin-7a(5H)-yl)methoxy)-5,6-dihydro-4H-[1,4]oxazepino[5,6,7-de]quinazolin-9-yl)-7-fluorobenzo[b]thiophene-3-carbonitrile] | ≥ 5.70 | ≥ 5.70 | ≥ 5.70 | ≥ 5.70 |
| N#Cc1c(N)sc2c(F)ccc(-c3c(C(F)(F)F)c4c5c(nc(OC[C@@]67CCCN6CC(=C(F)F)C7)nc5c3F)N([C@H](CCC(F)(F)F)c3cccnc3N)CCO4)c12 [Compound 666, 2-amino-4-(4-((R)-1-(2-aminopyridin-3-yl)-4,4,4-trifluorobutyl)-2-(((S)-2-(difluoromethylene)tetrahydro-1H-pyrrolizin-7a(5H)-yl)methoxy)-10-fluoro-8-(trifluoromethyl)-5,6-dihydro-4H-[1,4]oxazepino[5,6,7-de]quinazolin-9-yl)-7-fluorobenzo[b]thiophene-3-carbonitrile] | ≥ 5.70 | ≥ 5.70 | ≥ 5.70 | ≥ 5.70 |
| N#Cc1c(N)sc2c(F)ccc(-c3c(C(F)(F)F)c4c5c(nc(OC[C@@]67CCCN6C[C@H](F)C7)nc5c3F)N([C@H](CCC3CC3)c3cccnc3N)CCO4)c12 (single isomer, unassigned) [Compound 606] | < 5.70 | < 5.70 | < 5.70 | < 5.70 |

Further lines, results first:

| pIC50 (KRAS G12D) | pIC50 (KRAS WT) | pIC50 (KRAS G12V) | pIC50 (KRAS G12S) | SMILES |
| --- | --- | --- | --- | --- |
| ≥ 5.70 | ≥ 5.70 | ≥ 5.70 | ≥ 5.70 | C[C@H](c1cccnc1N)N1CCOc2c(C(F)(F)F)c(-c3ccc(F)c4sc(N)c(C#N)c34)c(F)c3nc(OCC4(CN5CCC(F)CC5)CC4)nc1c23 [Compound 836, 2-amino-4-(4-((R)-1-(2-aminopyridin-3-yl)ethyl)-10-fluoro-2-((1-((4-fluoropiperidin-1-yl)methyl)cyclopropyl)methoxy)-8-(trifluoromethyl)-5,6-dihydro-4H-[1,4]oxazepino[5,6,7-de]quinazolin-9-yl)-7-fluorobenzo[b]thiophene-3-carbonitrile] |
| ≥ 5.70 | ≥ 5.70 | ≥ 5.70 | ≥ 5.70 | CCN(CC)CCC[C@H](c1cccnc1N)N1CCOc2c(C(F)(F)F)c(-c3ccc(F)c4sc(NC)c(C#N)c34)c(F)c3nc(OC[C@@]45CCCN4C[C@H](F)C5)nc1c23 (single isomer, unassigned) [Compound 832] |
| ≥ 5.70 | ≥ 5.70 | ≥ 5.70 | ≥ 5.70 | C[C@H](c1cccnc1N)N1CCOc2c(Cl)c(-c3ccc(F)c4sc(N)c(C#N)c34)c(F)c3nc(OC[C@@]45CCCN4C[C@]4(CC4(F)F)C5)nc1c23 [Compound 918, 2-amino-4-(4-((R)-1-(2-aminopyridin-3-yl)ethyl)-8-chloro-2-(((1R,7a′S)-2,2-difluorodihydro-1′H,3′H-spiro[cyclopropane-1,2′-pyrrolizin]-7a′(5′H)-yl)methoxy)-10-fluoro-5,6-dihydro-4H-[1,4]oxazepino[5,6,7-de]quinazolin-9-yl)-7-fluorobenzo[b]thiophene-3-carbonitrile] |
| ≥ 5.70 | ≥ 5.70 | ≥ 5.70 | ≥ 5.70 | N#Cc1c(N)sc2c(F)ccc(-c3c(C(F)(F)F)c4c5c(nc(OC[C@@]67CCCN6C[C@@]6(CC6(F)F)C7)nc5c3F)N([C@H](CC3CCOCC3)c3cccnc3N)CCO4)c12 [Compound 855, 2-amino-4-(4-((R)-1-(2-aminopyridin-3-yl)-2-(tetrahydro-2H-pyran-4-yl)ethyl)-2-(((1S,7a′S)-2,2-difluorodihydro-1′H,3′H-spiro[cyclopropane-1,2′-pyrrolizin]-7a′(5′H)-yl)methoxy)-10-fluoro-8-(trifluoromethyl)-5,6-dihydro-4H-[1,4]oxazepino[5,6,7-de]quinazolin-9-yl)-7-fluorobenzo[b]thiophene-3-carbonitrile] |
| ≥ 5.70 | ≥ 5.70 | ≥ 5.70 | ≥ 5.70 | CCN(CC)CCC[C@H](c1cccnc1N)N1CCOc2c(C(F)(F)F)c(-c3ccc(F)c4sc(N)c(C#N)c34)c(F)c3nc(OC[C@@]45CCCN4C[C@H](F)C5)nc1c23 (single isomer, unassigned) [Compound 806] |
| ≥ 5.70 | ≥ 5.70 | ≥ 5.70 | ≥ 5.70 | C[C@H](c1ccc(CN)nc1N)N1CCOc2c(Cl)c(-c3ccc(F)c4sc(N)c(C#N)c34)c(F)c3nc(OC[C@@]45CCCN4C[C@H](F)C5)nc1c23 [Compound 813, 2-amino-4-(4-((R)-1-(2-amino-6-(aminomethyl)pyridin-3-yl)ethyl)-8-chloro-10-fluoro-2-(((2R,7aS)-2-fluorotetrahydro-1H-pyrrolizin-7a(5H)-yl)methoxy)-5,6-dihydro-4H-[1,4]oxazepino[5,6,7-de]quinazolin-9-yl)-7-fluorobenzo[b]thiophene-3-carbonitrile] |
| ≥ 5.70 | ≥ 5.70 | ≥ 5.70 | ≥ 5.70 | COc1cnc(N)c([C@@H](C)N2CCOc3c(C(F)(F)F)c(-c4ccc(F)c5sc(N)c(C#N)c45)c(F)c4nc(OC[C@@]56CCCN5C[C@H](F)C6)nc2c34)c1 [Compound 815, 2-amino-4-(4-((R)-1-(2-amino-5-methoxypyridin-3-yl)ethyl)-10-fluoro-2-(((2R,7aS)-2-fluorotetrahydro-1H-pyrrolizin-7a(5H)-yl)methoxy)-8-(trifluoromethyl)-5,6-dihydro-4H-[1,4]oxazepino[5,6,7-de]quinazolin-9-yl)-7-fluorobenzo[b]thiophene-3-carbonitrile] |
| ≥ 5.70 | ≥ 5.70 | ≥ 5.70 | ≥ 5.70 | CC[S+]([O-])[C@@H]1CN2CCC[C@@]2(COc2nc3c4c(c(Cl)c(-c5ccc(F)c6sc(N)c(C#N)c56)c(F)c4n2)OCCN3[C@H](C)c2cccnc2N)C1 (mixture of isomers) [Compound 780, 2-amino-4-(4-((R)-1-(2-aminopyridin-3-yl)ethyl)-8-chloro-2-(((2S,7aS)-2-(ethylsulfinyl)tetrahydro-1H-pyrrolizin-7a(5H)-yl)methoxy)-10-fluoro-5,6-dihydro-4H-[1,4]oxazepino[5,6,7-de]quinazolin-9-yl)-7-fluorobenzo[b]thiophene-3-carbonitrile] |
